The source of these data is publication PMC6240894 (2018).

Assay [1] relates to 25Ceb (DNA, G4) AGGGTGGGTGTAAGTGTGGGTGGGT
Kind of assay: UV/Vis and fluorescence titration, averaged. Particulars: K+ 100 mM; 10 mM Tris, pH 7.4, 25 °C.

Assay [2] has as its system Kras 32 (DNA, G4) AGGGCGGTGTGGGAAGAGGGAAGAGGGGGAGG
Kind of assay: UV/Vis and fluorescence titration, averaged. Particulars: K+ 100 mM; 10 mM Tris, pH 7.4, 25 °C; site 1 of 2; K12 4.1 × 10^5; 1:2 fit of lower credibility.

Assay [3] relates to Kras 22 (DNA, G4) AGGGCGGTGTGGGAATAGGGAA
Kind of assay: UV/Vis and fluorescence titration, averaged. Particulars: K+ 100 mM; 10 mM Tris, pH 7.4, 25 °C; site 1 of 2; K12 1.7 × 10^6; 1:2 fit of lower credibility.

Assay [4] has as its system VAV-1 (DNA, G4) GGGCAGGGAGGGAACTGGG
As to the kind of experiment: UV/Vis and fluorescence titration, averaged. Particulars: K+ 100 mM; 10 mM Tris, pH 7.4, 25 °C.

Assay [5] has as its system c-myc (DNA, G4) TGAGGGTGGGTAGGGTGGGTAA
Kind of assay: UV/Vis and fluorescence titration, averaged. Particulars: K+ 100 mM; 10 mM Tris, pH 7.4, 25 °C.

The test system of assay [6] is sG4 (DNA, G4) GGGTGGGTAGGGTGGG
As to the kind of experiment: UV/Vis and fluorescence titration, averaged. Particulars: K+ 100 mM; 10 mM Tris, pH 7.4, 25 °C.

For assay [7], the system named is 22AG (DNA, G4) AGGGTTAGGGTTAGGGTTAGGG
Kind of assay: fluorescence and UV/Vis titration. Particulars: K+ 100 mM; 10 mM Tris, pH 7.4, 25 °C; lower optical response.

Regarding `COCCOCCOCCOc1cc(CN2C(=CC3=C([O-])C(=Cc4sc5ccccc5[n+]4Cc4cc(OCCOCCOCCOC)c(OCCOCCOCCOC)c(OCCOCCOCCOC)c4)C3=C(C#N)C#N)Sc3ccccc32)cc(OCCOCCOCCOC)c1OCCOCCOCCOC`, the K11 stood at 900000 M⁻¹ in assay [1]; 5.9e+06 M⁻¹ in assay [2]; 1.5e+07 M⁻¹ in assay [3]; 1.2e+07 M⁻¹ in assay [4]; 1e+07 M⁻¹ in assay [5]; 8.1e+06 M⁻¹ in assay [6]. For the same compound, in assay [7], the binding entry was “weak”.
